The subject of this experiment is Glyphosate resistant cotton. Nature of the experiment: Field test: defoliation and desiccation of glyphosate resistant cotton. The experiment is classed as in vivo. The settings on record: post-emergence spray, scale 0-100% vs untreated plots. How it is done:
In the examples below, the value E which is to be expected if the activity of the individual compounds is just additive was calculated using the method of S. R. Colby (1967) “Calculating synergistic and antagonistic responses of herbicide combinations”, Weeds 15, p. 22 ff.
where X=effect in percent using active compound A at an application rate a; Y=effect in percent using active compound B at an application rate b; E=expected effect (in %) of A+B at application rates a+b.
If the experimentally determined value is higher than the value E calculated according to Colby's equation, a synergistic effect is present.
The phenyluracils I and/or the other active ingredients according to the present invention were formulated in a suitable way, either separately or in mixture, e.g. as emulsifiable concentrates (EC), soluble concentrates (SL), suspo-emulsions (SE), suspension concentrates (SC) or water-dispersible granules (WG). The formulation(s) were suspended or emulsified in water as a distribution medium immediately prior to spraying. Afterwards, the aqueous mixture was evenly sprayed on the test plots by means of finely distributing nozzles.
The test plots of rows of fully mature crop plants at the beginning of leaf fall were of uniform size (typically between 14 and 37 square meters, each) and the distribution of treated and untreated plots was organized according to a randomised bloc design. The plots were treated post-emergence, i.e. the aqueous mixture as described above was sprayed on the crop plants.
The evaluation of the defoliation or desiccation caused by the phenyluracils I and/or the other active ingredients according to the present invention was carried out using a scale from 0 to 100%, compared to the untreated control plots. Here, 0 means no defoliation or desiccation and 100 means complete defoliation of the crop plants, or complete desiccation of the leaves of the crop plant.
Defoliation and Desiccation of Glyphosate Resistant Cotton by the Phenyluracil 1.7 Alone as Well as by a Mixture of the Phenyluracil 1.7 and Glyphosate; Field Test
In this example, glyphosate (isopropylammonium salt) was formulated as a 360 g/l SL and Phenyluracil 1.7 as a 120 g/l EC. Prior to application, the formulated active ingredients were tank-mixed with an aqueous 140 l/ha spray solution which contained, in addition, 10 g/l of Agridex.

Where [1] appears, read: use rate Phenyluracil I.7 12.5 g/ha.

On to `CC(C)N(C)S(=O)(=O)NC(=O)c1cc(-n2c(=O)cc(C(F)(F)F)n(C)c2=O)c(F)cc1Cl` [I.7], for which, under setting [1], the “Glyphosate resistant cotton defoliation at 4 DAT (% defoliation), Found” value is 13% and the “Glyphosate resistant cotton desiccation at 4 DAT (% desiccation), Found” value is 63%.
Consider `O=C(O)CNCP(=O)(O)O` [Glyphosate, glyphosate], for which, where the note is “use rate glyphosate 840 g/ha”, the “Glyphosate resistant cotton defoliation at 4 DAT (% defoliation), Found” value was 0% and the “Glyphosate resistant cotton desiccation at 4 DAT (% desiccation), Found” value worked out at 3%.

The values above are taken from patent US20080280764A1, “Method of Desiccating and/or Defoliating Glyphosate Resistant Crops” (priority 2005, published 2008).
